{
  "source": "patent US4492650A",
  "about": "“A54556 Antibiotics and process for production thereof” (Eli Lilly and Company, priority 1982, dated 1985)",
  "system": "Culture A54556",
  "assay": "Sensitivity of Culture A54556 to antibiotics, sensitivity discs on ISP medium No. 2 agar; further: key: +: sensitive, zones of inhibition; -: resistant, no zones of inhibition",
  "format": "cell-based, Streptomyces hawaiiensis NRRL 15010",
  "method": "The sensitivity of Culture A54556 to several antibiotics at specific concentrations was determined with sensitivity discs padded onto the surface of plates containing ISP medium No. 2 agar seeded with 2% inoculum of Culture A54556.",
  "data": [
    {"smiles": "CO[C@H]1/C=C/O[C@@]2(C)Oc3c(C)c(O)c4c(O)c(c(/C=N/N5CCN(C)CC5)c(O)c4c3C2=O)NC(=O)/C(C)=C\\C=C\\[C@H](C)[C@H](O)[C@@H](C)[C@@H](O)[C@@H](C)[C@H](OC(C)=O)[C@@H]1C", "note": "[Rifampin]", "values": [
      {"measurement": "Antibiotic Sensitivity of Culture A54556", "setting": "5 mcg. disc", "value": "+"}
    ]},
    {"smiles": "[H]/N=C(/N)N[C@H]1[C@H](O)[C@@H](O)[C@H](O[C@@H]2O[C@@H](C)[C@](O)(C=O)[C@H]2O[C@@H]2O[C@@H](CO)[C@H](O)[C@@H](O)[C@@H]2NC)[C@@H](N/C(N)=N\\[H])[C@@H]1O", "note": "[Streptomycin]", "values": [
      {"measurement": "Antibiotic Sensitivity of Culture A54556", "setting": "10 mcg. disc", "value": "+"}
    ]},
    {"smiles": "CO[C@@H]1[C@@H](OC(N)=O)[C@@H](O)[C@H](Oc2ccc3c(O)c(NC(=O)c4ccc(O)c(CC=C(C)C)c4)c(=O)oc3c2C)OC1(C)C", "note": "[Novobiocin]", "values": [
      {"measurement": "Antibiotic Sensitivity of Culture A54556", "setting": "30 mcg. disc", "value": "+"}
    ]},
    {"smiles": "CC[C@H]1OC(=O)[C@H](C)[C@@H](O[C@H]2C[C@@](C)(OC)[C@@H](O)[C@H](C)O2)[C@H](C)[C@@H](O[C@@H]2O[C@H](C)C[C@H](N(C)C)[C@H]2O)[C@](C)(O)C[C@@H](C)C(=O)[C@H](C)[C@@H](O)[C@]1(C)O", "note": "[Erythromycin]", "values": [
      {"measurement": "Antibiotic Sensitivity of Culture A54556", "setting": "15 mcg. disc", "value": "-"}
    ]},
    {"smiles": "CN[C@H](CC(C)C)C(=O)N[C@H]1C(=O)N[C@@H](CC(N)=O)C(=O)N[C@H]2C(=O)N[C@H]3C(=O)N[C@H](C(=O)N[C@H](C(=O)O)c4cc(O)cc(O)c4-c4cc3ccc4O)[C@H](O)c3ccc(c(Cl)c3)Oc3cc2cc(c3O[C@@H]2O[C@H](CO)[C@@H](O)[C@H](O)[C@H]2O[C@H]2C[C@](C)(N)[C@H](O)[C@H](C)O2)Oc2ccc(cc2Cl)[C@H]1O", "note": "[Vancomycin]", "values": [
      {"measurement": "Antibiotic Sensitivity of Culture A54556", "setting": "30 mcg. disc", "value": "+"}
    ]}
  ]
}
